Experimental data as given in PubChem BioAssay (NCI).
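In this assay, cells in 96-well plates receive the compound at five concentrations for 48 hours. Endpoints are linearly interpolated between the surrounding concentrations. The concentration for 50% growth inhibition is given as GI50. The concentration for full growth arrest is given as TGI.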

Tests used:
Assay in all cases: DTP human tumour cell line panel, 48 h
SF-268 CNS = system: SF-268 CNS
HCC-2998 colon = system: HCC-2998 colon
HT29 colon = system: HT29 colon
SNB-19 CNS = system: SNB-19 CNS
HCT-116 colon = system: HCT-116 colon
K-562 leukemia = system: K-562 leukemia
CCRF-CEM leukemia = system: CCRF-CEM leukemia
KM12 colon = system: KM12 colon
TK-10 renal = system: TK-10 renal
MDA-MB-231 breast = system: MDA-MB-231 breast
U251 CNS = system: U251 CNS
A549 NSCLC = system: A549 NSCLC
MDA-MB-468 breast = system: MDA-MB-468 breast
EKVX NSCLC = system: EKVX NSCLC
HOP-62 NSCLC = system: HOP-62 NSCLC
SK-MEL-5 melanoma = system: SK-MEL-5 melanoma
LOX IMVI melanoma = system: LOX IMVI melanoma
BT-549 breast = system: BT-549 breast
DU-145 prostate = system: DU-145 prostate
RXF 393 renal = system: RXF 393 renal
HOP-92 NSCLC = system: HOP-92 NSCLC
MALME-3M melanoma = system: MALME-3M melanoma
RPMI-8226 leukemia = system: RPMI-8226 leukemia
SK-MEL-28 melanoma = system: SK-MEL-28 melanoma
UO-31 renal = system: UO-31 renal
HS 578T breast = system: HS 578T breast
OVCAR-4 ovarian = system: OVCAR-4 ovarian
NCI-H460 lung = system: NCI-H460 lung
SK-OV-3 ovarian = system: SK-OV-3 ovarian
CAKI-1 renal = system: CAKI-1 renal
PC-3 prostate = system: PC-3 prostate
SW-620 colon = system: SW-620 colon
M14 melanoma = system: M14 melanoma
SN12C renal = system: SN12C renal
MOLT-4 leukemia = system: MOLT-4 leukemia
SR leukemia = system: SR leukemia
786-0 renal = system: 786-0 renal
OVCAR-3 ovarian = system: OVCAR-3 ovarian
ACHN renal = system: ACHN renal
SNB-75 CNS = system: SNB-75 CNS
OVCAR-8 ovarian = system: OVCAR-8 ovarian
NCI-H522 lung = system: NCI-H522 lung
UACC-257 melanoma = system: UACC-257 melanoma
T-47D breast = system: T-47D breast
IGROV1 ovarian = system: IGROV1 ovarian
MCF7 breast = system: MCF7 breast
NCI-H226 lung = system: NCI-H226 lung
SF-539 CNS = system: SF-539 CNS
NCI-H23 lung = system: NCI-H23 lung
HL-60(TB) leukemia = system: HL-60(TB) leukemia
SF-295 CNS = system: SF-295 CNS
A498 renal = system: A498 renal
COLO 205 colon = system: COLO 205 colon
HCT-15 colon = system: HCT-15 colon
UACC-62 melanoma = system: UACC-62 melanoma
MDA-MB-435 = system: MDA-MB-435
OVCAR-5 ovarian = system: OVCAR-5 ovarian

With `Cc1cccc(NC(=O)[C@]23CCC(C)(C)CC2C2=CCC4[C@@]5(C)C[C@@H](O)[C@H](O)[C@@](C)(CO)C5CC[C@@]4(C)[C@]2(C)CC3)c1` (some centres undefined) the GI50 (SF-268 CNS) was 14.1 µM, the TGI (SF-268 CNS) was 42.3 µM and the GI50 (HCC-2998 colon) was 13 µM. It also gave a TGI (HCC-2998 colon) of 26.2 µM, a GI50 (HT29 colon) of 13.1 µM and a TGI (HT29 colon) of 27 µM. For the same compound, the GI50 (SNB-19 CNS) was 18.4 µM, the TGI (SNB-19 CNS) was 47.4 µM and the GI50 (HCT-116 colon) was 10.7 µM. It also gave a TGI (HCT-116 colon) of 22.5 µM, a GI50 (K-562 leukemia) of 14.5 µM and a TGI (K-562 leukemia) of 60.5 µM. It also gave a GI50 (CCRF-CEM leukemia) of 9.29 µM, a TGI (CCRF-CEM leukemia) of 35.1 µM and a GI50 (KM12 colon) of 14.1 µM. For the same compound, the TGI (KM12 colon) was 30.8 µM, the GI50 (TK-10 renal) was 16.5 µM and the TGI (TK-10 renal) was 35.8 µM. The GI50 (MDA-MB-231 breast) was 13.8 µM, the TGI (MDA-MB-231 breast) was 28.1 µM and the GI50 (U251 CNS) was 14.9 µM. The TGI (U251 CNS) was 30.1 µM, the GI50 (A549 NSCLC) was 22.2 µM and the TGI (A549 NSCLC) was > 100 µM. For the same compound, the GI50 (MDA-MB-468 breast) was 5.17 µM, the TGI (MDA-MB-468 breast) was 20.4 µM and the GI50 (EKVX NSCLC) was 12.8 µM. The TGI (EKVX NSCLC) was 29.1 µM, the GI50 (HOP-62 NSCLC) was 14.9 µM and the TGI (HOP-62 NSCLC) was 29.4 µM. It also gave a GI50 (SK-MEL-5 melanoma) of 11.9 µM, a TGI (SK-MEL-5 melanoma) of 24.3 µM and a GI50 (LOX IMVI melanoma) of 12.8 µM. The TGI (LOX IMVI melanoma) was 27.8 µM, the GI50 (BT-549 breast) was 14.3 µM and the TGI (BT-549 breast) was 27.8 µM. The GI50 (DU-145 prostate) was 16.5 µM, the TGI (DU-145 prostate) was 39.1 µM and the GI50 (RXF 393 renal) was 3.77 µM. It also gave a TGI (RXF 393 renal) of 17 µM, a GI50 (HOP-92 NSCLC) of 8.64 µM and a TGI (HOP-92 NSCLC) of 23.1 µM. For the same compound, the GI50 (MALME-3M melanoma) was 14.7 µM, the TGI (MALME-3M melanoma) was 28.3 µM and the GI50 (RPMI-8226 leukemia) was 6.25 µM. The TGI (RPMI-8226 leukemia) was 32 µM, the GI50 (SK-MEL-28 melanoma) was 13.3 µM and the TGI (SK-MEL-28 melanoma) was 26.5 µM. It also gave a GI50 (UO-31 renal) of 7.07 µM, a TGI (UO-31 renal) of 20.3 µM and a GI50 (HS 578T breast) of 12.8 µM. For the same compound, the TGI (HS 578T breast) was 50.8 µM, the GI50 (OVCAR-4 ovarian) was 11.5 µM and the TGI (OVCAR-4 ovarian) was 25.2 µM. For the same compound, the GI50 (NCI-H460 lung) was 12.5 µM, the TGI (NCI-H460 lung) was 25.6 µM and the GI50 (SK-OV-3 ovarian) was 14.5 µM. It also gave a TGI (SK-OV-3 ovarian) of 34.6 µM, a GI50 (CAKI-1 renal) of 6.63 µM and a TGI (CAKI-1 renal) of 21.9 µM. For the same compound, the GI50 (PC-3 prostate) was 5.16 µM, the TGI (PC-3 prostate) was 20.5 µM and the GI50 (SW-620 colon) was 15 µM. It also gave a TGI (SW-620 colon) of 29.7 µM, a GI50 (M14 melanoma) of 13.7 µM and a TGI (M14 melanoma) of 27.3 µM. For the same compound, the GI50 (SN12C renal) was 12.6 µM, the TGI (SN12C renal) was 25.5 µM and the GI50 (MOLT-4 leukemia) was 7.87 µM. The TGI (MOLT-4 leukemia) was 52 µM, the GI50 (SR leukemia) was 16.7 µM and the TGI (SR leukemia) was > 100 µM. It also gave a GI50 (786-0 renal) of 14.6 µM, a TGI (786-0 renal) of 29.4 µM and a GI50 (OVCAR-3 ovarian) of 14 µM. For the same compound, the TGI (OVCAR-3 ovarian) was 28 µM, the GI50 (ACHN renal) was 12.4 µM and the TGI (ACHN renal) was 24.9 µM. It also gave a GI50 (SNB-75 CNS) of 6.02 µM, a TGI (SNB-75 CNS) of 39.1 µM and a GI50 (OVCAR-8 ovarian) of 18.5 µM. It also gave a TGI (OVCAR-8 ovarian) of 60.2 µM, a GI50 (NCI-H522 lung) of 14.6 µM and a TGI (NCI-H522 lung) of 28.9 µM. For the same compound, the GI50 (UACC-257 melanoma) was 15.3 µM, the TGI (UACC-257 melanoma) was 31.5 µM and the GI50 (T-47D breast) was 7.45 µM. For the same compound, the TGI (T-47D breast) was 20.7 µM, the GI50 (IGROV1 ovarian) was 12.2 µM and the TGI (IGROV1 ovarian) was 25.4 µM. It also gave a GI50 (MCF7 breast) of 5.71 µM, a TGI (MCF7 breast) of 19.2 µM and a GI50 (NCI-H226 lung) of 10.4 µM. For the same compound, the TGI (NCI-H226 lung) was 22.9 µM, the GI50 (SF-539 CNS) was 13.9 µM and the TGI (SF-539 CNS) was 28 µM. It also gave a GI50 (NCI-H23 lung) of 14.6 µM, a TGI (NCI-H23 lung) of 28.8 µM and a GI50 (HL-60(TB) leukemia) of 15.2 µM. The TGI (HL-60(TB) leukemia) was 55.9 µM, the GI50 (SF-295 CNS) was 10 µM and the TGI (SF-295 CNS) was 22.5 µM. For the same compound, the GI50 (A498 renal) was 15.7 µM, the TGI (A498 renal) was 29.4 µM and the GI50 (COLO 205 colon) was 13.6 µM. It also gave a TGI (COLO 205 colon) of 29.1 µM, a GI50 (HCT-15 colon) of 10.8 µM and a TGI (HCT-15 colon) of 23.4 µM. It also gave a GI50 (UACC-62 melanoma) of 11.3 µM, a TGI (UACC-62 melanoma) of 23.7 µM and a GI50 (MDA-MB-435) of 13.3 µM. For the same compound, the TGI (MDA-MB-435) was 26.5 µM, the GI50 (OVCAR-5 ovarian) was 13.3 µM and the TGI (OVCAR-5 ovarian) was 26.4 µM.
